Results published in BigSolDB 2.1.

O=C1C=CC(=O)c2ccccc21
Settings | solubility (mole fraction)
in acetone, 293.27 K | 0.0362
in acetone, 295.46 K | 0.0373
in acetone, 295.8 K | 0.0377
in acetone, 298.25 K | 0.0399
in acetone, 298.51 K | 0.0403
in acetone, 299.07 K | 0.0411
in acetone, 300.66 K | 0.0437
in acetone, 302.06 K | 0.0467
in acetone, 304 K | 0.0503
in acetone, 305.3 K | 0.0532
in acetone, 308.24 K | 0.0584
in acetone, 311.24 K | 0.0639
in acetone, 312.91 K | 0.0683
in acetone, 314.97 K | 0.0727
in acetone, 316.33 K | 0.0767
in acetone, 318.06 K | 0.081
in acetone, 319.63 K | 0.0856
in ethanol, 279.8 K | 0.00145
in ethanol, 285.78 K | 0.00221
in ethanol, 289.05 K | 0.00277
in ethanol, 292.72 K | 0.00335
in ethanol, 296.52 K | 0.00412
in ethanol, 299.87 K | 0.00487
in ethanol, 303.25 K | 0.00596
in ethanol, 305.99 K | 0.00696
in ethanol, 309.13 K | 0.00825
in ethanol, 311.85 K | 0.00945
in ethanol, 314.73 K | 0.0109
in ethanol, 316.84 K | 0.0121
in ethanol, 319.52 K | 0.0134
in ethanol, 321.15 K | 0.0145
in ethanol, 322.93 K | 0.0157
in ethanol, 328.25 K | 0.0199
in ethanol, 329.13 K | 0.0212
in ethanol, 331.34 K | 0.0235
in ethanol, 333.04 K | 0.0256
in ethanol, 334.13 K | 0.0274
in ethanol, 335.43 K | 0.0294
in n-butanol, 302.1 K | 0.00657
in n-butanol, 307.2 K | 0.00908
in n-butanol, 312.32 K | 0.012
in n-butanol, 317.1 K | 0.0152
in n-butanol, 319.33 K | 0.017
in n-butanol, 320.94 K | 0.0183
in n-butanol, 322.16 K | 0.0199
in n-butanol, 325.85 K | 0.0238
in n-butanol, 330.35 K | 0.0307
in n-butanol, 334.33 K | 0.0377
in n-butanol, 336.45 K | 0.0434
in n-butanol, 339.23 K | 0.05
in n-butanol, 341.3 K | 0.056
in n-butanol, 343.26 K | 0.0624
in n-butanol, 344.6 K | 0.0695
in n-butanol, 346.03 K | 0.0763
in toluene, 294.1 K | 0.0476
in toluene, 297.82 K | 0.0537
in toluene, 300.35 K | 0.0585
in toluene, 302.68 K | 0.0631
in toluene, 304.44 K | 0.0668
in toluene, 306.58 K | 0.0723
in toluene, 310.16 K | 0.081
in toluene, 313.15 K | 0.089
in toluene, 315.25 K | 0.094
in toluene, 317.27 K | 0.0994
in toluene, 319.93 K | 0.107
in toluene, 321.45 K | 0.113
in toluene, 322.53 K | 0.116
in toluene, 322.93 K | 0.118
in toluene, 327.2 K | 0.133
in toluene, 330.45 K | 0.145
in toluene, 331.95 K | 0.153
